Source: US12252524B2, “GIP/GLP1 co-agonist compounds” (Eli Lilly and Company, priority 2018, dated 2025)
Numbered stars: 1 amine (or outer) side, 2 acyl side, 3 side chain; on linkers, the order of the positions; unused ones are H or OH. Square brackets hold non-standard residues; d marks the D form. Side chains are listed from the residue outwards. Peptide text beside a SMILES is read from it. * marks the point of attachment. C20 diacid = O=C(O)CCCCCCCCCCCCCCCCCCC(=O)*; αMePhe(2-F) = C[C@](N)(Cc1ccccc1F)C(=O)O; γGlu = O=C(O)[C@H](CCC(=O)[*:2])N[*:1]; αMeY = C[C@](N)(Cc1ccc(O)cc1)C(=O)O; αMeF = C[C@](N)(Cc1ccccc1)C(=O)O; αMeL = CC(C)C[C@](C)(N)C(=O)O; AEEA = NCCOCCOCC(=O)O; Aib = CC(C)(N)C(=O)O

What was measured:
human GIP receptor = target: T1, human GIP receptor (Homo sapiens, UniProt P48546); experiment: [125I]-GIP binding (SPA), human GIP receptor; settings: read-out: hGIPR Ki, nM (SEM, n)
T1 construct: expressed in transfected cells; crude membranes
T1 sequence (P48546 22-466): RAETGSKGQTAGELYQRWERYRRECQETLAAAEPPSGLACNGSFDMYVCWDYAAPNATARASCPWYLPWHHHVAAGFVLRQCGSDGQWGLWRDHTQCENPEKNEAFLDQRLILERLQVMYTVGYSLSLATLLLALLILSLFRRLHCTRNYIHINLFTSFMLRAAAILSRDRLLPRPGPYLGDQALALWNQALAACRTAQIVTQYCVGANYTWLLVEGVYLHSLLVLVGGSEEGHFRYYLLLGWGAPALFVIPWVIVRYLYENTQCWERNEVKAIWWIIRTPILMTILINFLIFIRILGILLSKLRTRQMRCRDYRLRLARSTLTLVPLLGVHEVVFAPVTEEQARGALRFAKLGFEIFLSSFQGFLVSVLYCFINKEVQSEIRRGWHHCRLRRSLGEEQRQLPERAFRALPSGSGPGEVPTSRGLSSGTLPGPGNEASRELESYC

human GLP-1R = human GLP-1R (Homo sapiens, UniProt P43220); experiment: [125I]-GLP-1 binding (SPA), human GLP-1 receptor; set-up: expressed in transfected cells; crude membranes; settings: read-out: hGLP1R Ki, (nM) (SEM, n)
Outline: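 Crude-membrane binding assay; one membrane prep included 1 mM MgCl2 and 25 units/ml DNAse I during lysis. Assay buffer at pH 7.4 contains 0.1% (w/v) bacitracin and 0.003% (w/v) TWEEN-20. Ki is reported as geometric mean.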

human Gcg receptor = target: T2, human Gcg receptor (Homo sapiens, UniProt P47871); experiment: [125I]-Glucagon binding (SPA), human Gcg receptor; settings: read-out: hGLcgR Ki, nM (SEM, n)
T2 construct: expressed in transfected cells; crude membranes
Outline: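 Scintillation counts are taken after membranes and WGA beads incubate and settle for 12 hours at room temperature. Buffer is 25 mM HEPES, pH 7.4, with CaCl2, MgCl2, bacitracin and Tween-20. Ki values, from four-parameter IC50 fits, are geometric means over independent days.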

[1] = target: human GLP-1 receptor (GLP-1R) (Homo sapiens, UniProt P43220); experiment: cAMP pharmacological functional assay in presence of casein, hGLP-1R; type: cell-based; settings: HEK293 cells expressing hGLP-1R, 0.1% Casein, geometric mean; read-out: hGLP1R cAMP Rel EC50 nM (SEM, n)
[2] = target: T3, gastric inhibitory peptide receptor (GIPR) (Homo sapiens, UniProt P48546); experiment: cAMP pharmacological functional assay in presence of casein, hGIPR; type: cell-based; settings: HEK293 cells expressing hGIPR, 0.1% Casein, geometric mean; read-out: hGIPR cAMP Rel EC50 nM (SEM, n)
T3 sequence (P48546 22-466): T1 sequence (P48546 22-466)

human GLP-1 receptor (GLP-1R), sequence (P43220 24-463): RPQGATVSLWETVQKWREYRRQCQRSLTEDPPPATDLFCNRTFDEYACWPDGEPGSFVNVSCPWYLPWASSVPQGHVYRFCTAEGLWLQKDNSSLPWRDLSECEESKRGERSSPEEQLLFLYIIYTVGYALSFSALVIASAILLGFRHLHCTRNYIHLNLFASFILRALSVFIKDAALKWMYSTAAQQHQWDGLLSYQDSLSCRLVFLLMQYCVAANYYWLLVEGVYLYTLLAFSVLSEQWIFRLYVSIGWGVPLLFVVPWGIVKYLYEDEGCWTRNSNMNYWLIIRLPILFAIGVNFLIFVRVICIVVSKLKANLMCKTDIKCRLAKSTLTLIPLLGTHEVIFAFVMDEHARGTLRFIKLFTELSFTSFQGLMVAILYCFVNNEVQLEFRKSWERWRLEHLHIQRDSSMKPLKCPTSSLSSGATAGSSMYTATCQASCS
human GLP-1R, sequence (P43220 24-463): as above
T2 sequence (P47871 26-477): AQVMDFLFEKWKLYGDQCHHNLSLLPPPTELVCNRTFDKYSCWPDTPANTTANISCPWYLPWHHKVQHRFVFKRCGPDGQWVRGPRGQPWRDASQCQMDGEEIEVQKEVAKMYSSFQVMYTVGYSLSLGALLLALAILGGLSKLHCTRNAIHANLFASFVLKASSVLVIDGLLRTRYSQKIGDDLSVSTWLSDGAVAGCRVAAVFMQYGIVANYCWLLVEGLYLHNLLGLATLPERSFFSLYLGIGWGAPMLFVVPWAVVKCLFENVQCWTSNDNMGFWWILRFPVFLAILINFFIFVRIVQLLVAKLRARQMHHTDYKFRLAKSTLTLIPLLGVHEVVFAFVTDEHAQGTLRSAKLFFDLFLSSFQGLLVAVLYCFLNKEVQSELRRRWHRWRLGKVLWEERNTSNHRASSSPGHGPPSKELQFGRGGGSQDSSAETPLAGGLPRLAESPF

SMILES	Ki (human GIP receptor)	Ki (human GLP-1R)	Ki (human Gcg receptor)	EC50 [1]	EC50 [2]
CC[C@H](C)[C@H](NC(=O)[C@H](CC(C)C)NC(=O)[C@](C)(Cc1ccc(O)cc1)NC(=O)[C@@H](CCC(=O)O)NC(=O)[C@@H](NC(=O)[C@H](Cc1ccccc1)NC(=O)[C@H](CCC(=O)O)NC(=O)C(C)(C)NC(=O)[C@H](CCC(N)=O)NC(=O)[C@H](C)NC(=O)[C@H](CCCCNC(=O)COCCOCCNC(=O)COCCOCCNC(=O)CC[C@H](NC(=O)CCCCCCCCCCCCCCCCCCC(=O)O)C(=O)O)NC(=O)[C@H](CCC(=O)O)NC(=O)[C@H](CC(=O)O)NC(=O)[C@H](CC(C)C)NC(=O)[C@](C)(CC(C)C)NC(=O)[C@@H](NC(=O)[C@H](CO)NC(=O)[C@H](Cc1ccc(O)cc1)NC(=O)[C@H](CC(=O)O)NC(=O)[C@H](CO)NC(=O)[C@@H](NC(=O)[C@](C)(Cc1ccccc1F)NC(=O)[C@@H](NC(=O)CNC(=O)[C@H](CCC(=O)O)NC(=O)C(C)(C)NC(=O)[C@@H](N)Cc1ccc(O)cc1)[C@@H](C)O)[C@@H](C)O)[C@@H](C)CC)[C@@H](C)CC)C(=O)N[C@@H](CCC(=O)O)C(=O)NCC(=O)NCC(=O)N1CCC[C@H]1C(=O)N[C@@H](CO)C(=O)N[C@@H](CO)C(=O)NCC(=O)N[C@@H](C)C(=O)N1CCC[C@H]1C(=O)N1CCC[C@H]1C(=O)N1CCC[C@H]1C(=O)N[C@@H](CO)C(N)=O [Example 222] (H-Y[Aib]EGT[αMePhe(2-F)]TSDYSI[αMeL]LDEK([AEEA-AEEA-γGlu-C20 diacid])AQ[Aib]EFI[dE][αMeY]LIEGGPSSGAPPPS-NH2; N-terminus assumed)	0.0495 nM	3.59 nM	71.3 nM	0.0248 nM	0.0306 nM
CC[C@H](C)[C@H](NC(=O)[C@H](CC(C)C)NC(=O)[C@](C)(Cc1ccc(O)cc1)NC(=O)[C@H](CCC(=O)O)NC(=O)[C@@H](NC(=O)[C@H](Cc1ccccc1)NC(=O)[C@H](CCC(=O)O)NC(=O)C(C)(C)NC(=O)[C@H](CCC(N)=O)NC(=O)[C@H](C)NC(=O)[C@H](CCCCNC(=O)COCCOCCNC(=O)COCCOCCNC(=O)CC[C@H](NC(=O)CCCCCCCCCCCCCCCCCCC(=O)O)C(=O)O)NC(=O)[C@H](CCC(=O)O)NC(=O)[C@H](CC(=O)O)NC(=O)[C@H](CC(C)C)NC(=O)[C@](C)(CC(C)C)NC(=O)[C@@H](NC(=O)[C@H](CO)NC(=O)[C@H](Cc1ccc(O)cc1)NC(=O)[C@H](CC(=O)O)NC(=O)[C@H](CO)NC(=O)[C@@H](NC(=O)[C@](C)(Cc1ccccc1F)NC(=O)[C@@H](NC(=O)CNC(=O)[C@H](CCC(=O)O)NC(=O)C(C)(C)NC(=O)[C@@H](N)Cc1ccc(O)cc1)[C@@H](C)O)[C@@H](C)O)[C@@H](C)CC)[C@@H](C)CC)C(=O)N[C@@H](CCC(=O)O)C(=O)NCC(=O)NCC(=O)N1CCC[C@H]1C(=O)N[C@@H](CO)C(=O)N[C@@H](CO)C(=O)NCC(=O)N[C@@H](C)C(=O)N1CCC[C@H]1C(=O)N1CCC[C@H]1C(=O)N1CCC[C@H]1C(=O)N[C@@H](CO)C(N)=O [Example 223] (H-Y[Aib]EGT[αMePhe(2-F)]TSDYSI[αMeL]LDEK([AEEA-AEEA-γGlu-C20 diacid])AQ[Aib]EFIE[αMeY]LIEGGPSSGAPPPS-NH2)	0.0921 nM	5.62 nM	46.5 nM	0.0363 nM	0.067 nM
CC[C@H](C)[C@H](NC(=O)[C@H](CC(C)C)NC(=O)[C@H](Cc1ccc(O)cc1)NC(=O)[C@@H](CCC(=O)O)NC(=O)[C@@H](NC(=O)[C@H](Cc1ccccc1)NC(=O)[C@H](CCC(=O)O)NC(=O)C(C)(C)NC(=O)[C@H](CCC(N)=O)NC(=O)[C@H](C)NC(=O)[C@H](CCCCNC(=O)COCCOCCNC(=O)COCCOCCNC(=O)CC[C@H](NC(=O)CCCCCCCCCCCCCCCCCCC(=O)O)C(=O)O)NC(=O)[C@H](CCC(=O)O)NC(=O)[C@H](CC(=O)O)NC(=O)[C@H](CC(C)C)NC(=O)C(C)(C)NC(=O)[C@@H](NC(=O)[C@H](CO)NC(=O)[C@H](Cc1ccc(O)cc1)NC(=O)[C@H](CC(=O)O)NC(=O)[C@H](CO)NC(=O)[C@@H](NC(=O)[C@](C)(Cc1ccccc1F)NC(=O)[C@@H](NC(=O)CNC(=O)[C@H](CCC(=O)O)NC(=O)C(C)(C)NC(=O)[C@@H](N)Cc1ccc(O)cc1)[C@@H](C)O)[C@@H](C)O)[C@@H](C)CC)[C@@H](C)CC)C(=O)N[C@@H](CCC(=O)O)C(=O)NCC(=O)NCC(=O)N1CCC[C@H]1C(=O)N[C@@H](CO)C(=O)N[C@@H](CO)C(=O)NCC(=O)N[C@@H](C)C(=O)N1CCC[C@H]1C(=O)N1CCC[C@H]1C(=O)N1CCC[C@H]1C(=O)N[C@@H](CO)C(N)=O [Example 224] (H-Y[Aib]EGT[αMePhe(2-F)]TSDYSI[Aib]LDEK([AEEA-AEEA-γGlu-C20 diacid])AQ[Aib]EFI[dE]YLIEGGPSSGAPPPS-NH2)	0.0482 nM	6.86 nM	627 nM	0.0349 nM	0.0545 nM
CC[C@H](C)[C@H](NC(=O)[C@H](CC(C)C)NC(=O)[C@H](Cc1ccc(O)cc1)NC(=O)[C@@H](CCC(=O)O)NC(=O)[C@@H](NC(=O)[C@H](Cc1ccccc1)NC(=O)[C@H](CCC(=O)O)NC(=O)C(C)(C)NC(=O)[C@H](CCC(N)=O)NC(=O)[C@H](C)NC(=O)[C@H](CCCCNC(=O)COCCOCCNC(=O)COCCOCCNC(=O)CC[C@H](NC(=O)CCCCCCCCCCCCCCCCCCC(=O)O)C(=O)O)NC(=O)[C@H](CCC(=O)O)NC(=O)[C@H](CC(=O)O)NC(=O)[C@H](CC(C)C)NC(=O)C(C)(C)NC(=O)[C@@H](NC(=O)[C@H](CO)NC(=O)[C@H](Cc1ccc(O)cc1)NC(=O)[C@H](CC(=O)O)NC(=O)[C@H](CO)NC(=O)[C@@H](NC(=O)[C@](C)(Cc1ccccc1)NC(=O)[C@@H](NC(=O)CNC(=O)[C@H](CCC(=O)O)NC(=O)C(C)(C)NC(=O)[C@@H](N)Cc1ccc(O)cc1)[C@@H](C)O)[C@@H](C)O)[C@@H](C)CC)[C@@H](C)CC)C(=O)N[C@@H](CCC(=O)O)C(=O)NCC(=O)NCC(=O)N1CCC[C@H]1C(=O)N[C@@H](CO)C(=O)N[C@@H](CO)C(=O)NCC(=O)N[C@@H](C)C(=O)N1CCC[C@H]1C(=O)N1CCC[C@H]1C(=O)N1CCC[C@H]1C(=O)N[C@@H](CO)C(N)=O [Example 225] (H-Y[Aib]EGT[αMeF]TSDYSI[Aib]LDEK([AEEA-AEEA-γGlu-C20 diacid])AQ[Aib]EFI[dE]YLIEGGPSSGAPPPS-NH2)	0.0622 nM	8.79 nM	714 nM	0.067 nM	0.101 nM
CC[C@H](C)[C@H](NC(=O)[C@H](CC(C)C)NC(=O)[C@H](Cc1ccc(O)cc1)NC(=O)[C@@H](CCC(=O)O)NC(=O)[C@@H](NC(=O)[C@H](Cc1ccccc1)NC(=O)[C@H](CCC(=O)O)NC(=O)C(C)(C)NC(=O)[C@H](CCC(N)=O)NC(=O)[C@H](C)NC(=O)[C@H](CCCCNC(=O)COCCOCCNC(=O)COCCOCCNC(=O)CC[C@H](NC(=O)CCCCCCCCCCCCCCCCCCC(=O)O)C(=O)O)NC(=O)[C@H](CCC(=O)O)NC(=O)[C@H](CC(=O)O)NC(=O)[C@H](CC(C)C)NC(=O)[C@H](CC(C)C)NC(=O)[C@@H](NC(=O)[C@H](CO)NC(=O)[C@H](Cc1ccc(O)cc1)NC(=O)[C@H](CC(=O)O)NC(=O)[C@H](CO)NC(=O)[C@@H](NC(=O)[C@](C)(Cc1ccccc1F)NC(=O)[C@@H](NC(=O)CNC(=O)[C@H](CCC(=O)O)NC(=O)C(C)(C)NC(=O)[C@@H](N)Cc1ccc(O)cc1)[C@@H](C)O)[C@@H](C)O)[C@@H](C)CC)[C@@H](C)CC)C(=O)N[C@@H](CCC(=O)O)C(=O)NCC(=O)NCC(=O)N1CCC[C@H]1C(=O)N[C@@H](CO)C(=O)N[C@@H](CO)C(=O)NCC(=O)N[C@@H](C)C(=O)N1CCC[C@H]1C(=O)N1CCC[C@H]1C(=O)N1CCC[C@H]1C(=O)N[C@@H](CO)C(N)=O [Example 226] (H-Y[Aib]EGT[αMePhe(2-F)]TSDYSILLDEK([AEEA-AEEA-γGlu-C20 diacid])AQ[Aib]EFI[dE]YLIEGGPSSGAPPPS-NH2)	0.0254 nM	4.1 nM	200 nM	0.0284 nM	0.0461 nM
